# According to PubChem BioAssay (NCI):
#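 Results reflect a 48-hour exposure of cells in 96-well plates to compound at five concentrations. The concentration for 50% growth inhibition is given as GI50. TGI marks complete inhibition of growth.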
# Legend:
# Assay in all cases: NCI-60 cell line screen, 48 h
# DLD-1 colon = system: DLD-1 colon
# SF-539 CNS = system: SF-539 CNS
# SNB-78 CNS = system: SNB-78 CNS
# UACC-257 melanoma = system: UACC-257 melanoma
# XF 498 CNS = system: XF 498 CNS
# MALME-3M melanoma = system: MALME-3M melanoma
# LXFL 529 NSCLC = system: LXFL 529 NSCLC
# HCT-15 colon = system: HCT-15 colon
# BT-549 breast = system: BT-549 breast
# HS 578T breast = system: HS 578T breast
Compound,TGI (DLD-1 colon),TGI (SF-539 CNS),TGI (SNB-78 CNS),TGI (UACC-257 melanoma),TGI (XF 498 CNS),TGI (MALME-3M melanoma),TGI (LXFL 529 NSCLC),TGI (HCT-15 colon),TGI (BT-549 breast),TGI (HS 578T breast),GI50 (DLD-1 colon),GI50 (HCT-15 colon),GI50 (SF-539 CNS),GI50 (SNB-78 CNS),GI50 (UACC-257 melanoma),GI50 (XF 498 CNS),GI50 (MALME-3M melanoma),GI50 (LXFL 529 NSCLC)
OC1(C23CC4CC(CC(C4)C2)C3)CSCC1(O)C12CC3CC(CC(C3)C1)C2 (stereo not given),> 100 µM,> 100 µM,> 100 µM,> 100 µM,> 100 µM,> 100 µM,> 100 µM,,,,,,,,,,,
Cc1ccccc1C1OC(=O)c2ccc3ccccc3c21 (stereo not given),16.8 µM,13.4 µM,98.3 µM,12.2 µM,9.69 µM,14 µM,15.1 µM,9.44 µM,,,,,,,,,,
OC(CCNC12CC3CC(CC(C3)C1)C2)c1ccccc1 (stereo not given),> 100 µM,> 100 µM,> 100 µM,> 100 µM,> 100 µM,> 100 µM,> 100 µM,> 100 µM,,,,,,,,,,
COc1c(O)c2c3c(cc(C)cc3c1C(C)C)OC2,> 100 µM,> 100 µM,> 100 µM,> 100 µM,> 100 µM,> 100 µM,> 100 µM,> 100 µM,,,,,,,,,,
Cc1ccc2c(c1)-c1c3c(nn1-c1ccccc1)-c1ccccc1SC3O2 (stereo not given),> 100 µM,> 100 µM,> 100 µM,> 100 µM,> 100 µM,> 100 µM,> 100 µM,,,,,,,,,,,
NNC(=O)C1CCC(=O)N1S(=O)(=O)c1ccccc1 (stereo not given),> 100 µM,> 100 µM,> 100 µM,> 100 µM,> 100 µM,> 100 µM,> 100 µM,> 100 µM,,,,,,,,,,
CCOc1cc2c(C(=O)CC)c(O)ccc2o1,> 43.2 µM,> 100 µM,> 100 µM,> 100 µM,> 80.1 µM,> 100 µM,> 100 µM,> 100 µM,,,,,,,,,,
c1cncc(C2N3CCCCC3[C@@H]3c4[nH]c5ccccc5c4CCN23)c1 (stereo not given in full),> 100 µM,> 100 µM,> 100 µM,> 100 µM,> 100 µM,,> 100 µM,> 100 µM,,,,,,,,,,
O=C1CCCCC1S(=O)(=O)c1ccccc1 (stereo not given),> 100 µM,> 100 µM,> 100 µM,> 100 µM,> 100 µM,> 100 µM,> 100 µM,> 100 µM,,,,,,,,,,
COc1ccc(/C=C/c2cc(OC)c(OC)c(OC)c2)cc1,> 100 µM,13.6 µM,52.9 µM,> 100 µM,8.6 µM,74.3 µM,> 100 µM,> 93.5 µM,,,,,,,,,,
CSc1nnc(CCC(=O)Nc2c(C)cccc2C)o1,> 100 µM,> 100 µM,> 100 µM,> 100 µM,> 100 µM,> 100 µM,> 100 µM,> 100 µM,,,,,,,,,,
O=c1cnn(C2OC(CO)C(O)C2O)c(=S)[nH]1 (stereo not given),> 100 µM,> 100 µM,> 100 µM,> 100 µM,> 100 µM,> 100 µM,> 100 µM,> 100 µM,> 100 µM,> 100 µM,,,,,,,,
Cc1nc(Nc2ccccc2)sc1C(=O)CC(=O)C(=O)Nc1c(C(C)C)cccc1C(C)C,> 100 µM,> 100 µM,> 100 µM,> 100 µM,> 100 µM,> 100 µM,> 100 µM,> 100 µM,,,,,,,,,,
O=[N+]([O-])c1ccc(-n2nnc(C3=NCCN3)c2-c2ccccc2)cc1,> 100 µM,> 100 µM,> 100 µM,> 100 µM,> 100 µM,> 100 µM,> 100 µM,> 100 µM,,,,,,,,,,
C=Cc1cncc(C#N)c1CCc1c(C#N)cncc1C=C,> 100 µM,> 100 µM,> 100 µM,> 100 µM,> 100 µM,> 100 µM,> 100 µM,> 100 µM,,,> 100 µM,> 100 µM,> 100 µM,> 100 µM,> 100 µM,> 100 µM,> 100 µM,> 100 µM
O=C1C=CC(=O)C2=C1[C@@H](O)C1CC=CC3C(=O)O[C@@H]2C31 (stereo not given in full),37.9 µM,> 58.6 µM,> 62.3 µM,> 57.5 µM,42.1 µM,34.6 µM,29.3 µM,44.1 µM,,,,,,,,,,
